These results are taken from US9642803B2, “Nano-sized particles comprising multi-headed amphiphiles for targeted drug delivery” (Ben-Gurion University Of The Negev Research And Development …, priority 2009, dated 2017).

Series [1] in a line: Percentage of encapsulation in bolaamphiphile vesicles. The format is physicochemical.
The test system of the next series is mice. The series is described as follows: Hot plate test (analgesic effect) in mice. The format is in vivo. To be noted: for response time: nanoparticles by ethanol injection, encapsulated groups pre-injected with pyridostigmine 0.5 mg/kg; for analgesic effect: i.v. 20 mg/Kg. As for the experimental part: The response of mice to a transient painful stimulus was measured following administration of the test material (either i.v. into the tail vein or per os by gavages). The analgesic effect was determined by placing the mouse on a hot plate (55° C., IITC model 39) and recording the time for withdrawing/licking the hind limb (hot plate test). To prevent tissue damage and suffering of the animal, the experiment was terminated after 20 sec if no response was evoked. The response latencies were recorded and either used by themselves for comparison or normalized as percent of maximal possible effect (MPE) using the equation: […]
where: RT—is the response latency after treatment; RT0—is the response latency of a mouse without treatment and RTmax—is the maximal response time allowed (20 sec).
Derivative 4-nanoparticles comprising leu-enkephalin, prepared as described in Example 9 by FHS (film hydration flowed by sonication), were administered to mice and their ability to exert an analgesic effect was measured by the hot plate test described in Methods.
Nanoparticles were made from 10 mg/ml Derivative 4 with cholesterol and cholesteryl hemisuccinate as additives (2:1:1) and 10% molar ratio chitosan (CS)-vernolic acid conjugate in presence of 2.5 mg/ml leu-enkephalin. In these nanoparticles, CS-vernolic acid conjugate serves as a pendant on the nanoparticles/vesicles in order to enhance penetrability.
Nanoparticles were injected into the tail vein at a dose of 20 mg/kg bolaamphiphile, which corresponds to 5 mg/kg leu-enkephaime. Empty nanoparticles and free leu-enkephalin injected in a dose of 20 mg/kg, were used as a negative control and morphine at a dose of 5 mg/kg was used as a positive control. Mice were pretreated with 0.5 mg/kg pyridostigmine 15 min prior to the injection of the nanoparticles. Pyridostigmine inhibits the activity of acetylcholine esterase and thus prevents hydrolysis of the acetyl choline headgroups in the periphery.
Analgesic effect studies (hot plate test) in mice were carried out using nanoparticles comprising Derivative 1 or Derivative 4 and prepare by the ethanol injection technique described in Example 10. The hot plate test was preformed as described in Example 19. All mice treated with encapsulated leu-enkephalin, were pre-injected with the periphery acetylcholine esterase inhibitor pyridostigmine (0.5 mg/kg).
The efficacy of delivering leu-enkephalin in various nanoparticles in oral formulations versus i.v. injectable formulations were tested (a hot plate test of Example 20). Thus, formulations comprising leu-enkephalin encapsulated in the following nanoparticles were prepared: (a) nanoparticles comprising Derivative 4, cholesterol, cholesteryl hemisuccinate and vernolyl-chitosan prepared according to Example 13(i); (b) nanoparticles comprising distearyl phosphatidyl choline (DSPC) as the amphiphilic compound, cholesterol, prepared as described in Example 13(iii).
Formulations comprising […] leu-enkephalin loaded nanoparticles were administered by gavages at a dose of 100 mg/kg bolaamphiphile, which corresponds to 25 mg/kg leu-enkephalin. The same dose of free leu-enkephalin was administered by gavages as a control. The results were compared to liposomes made from 20 mg/ml DSPC in presence of 5 mg/ml leu-enkephalin and administered at a dose of 200 mg/kg phospholipid, which corresponds to 50 mg/kg leu-enkephalin. The mice were preinjected with pyridostigmine as in example 20. The results, are shown in FIG. 2, represent the analgesic effect as percent of maximal possible response (MPE).
In order to assess an optimized delivery and targeted release efficiencies, the analgesic effect of formulations containing nanoparticles comprising Derivative 4, cholesterol, cholesteryl hemisuccinate and vernoyl chitosan as additives (chitosan nanoparticles), and various amounts of leu-enkephalin was studied by the hot plate test. Nanoparticles were prepared as described in Example 15. […]

5(6)-Carboxyfluorescein [CF]: the “percentage of CF encapsulation” value in series [1] (Derivative 4/cholesterol/cholesteryl hemisuccinate/PEG(201) or PEG(202) 100:25:25:10 nanoparticles, PBS pH 8.0) was determined as 20%.
For `CN(C)C(=O)Oc1ccc[n+](C)c1.[Br-]` [pyridostigmine, 3-(Dimethylamino-carbonyloxy)-1-methylpyridinium bromide], the “analgesic response of pyridostigmine by itself” value in the series on mice (0.5 mg/kg) is on record as “does not evoke an analgesic response”.
With “[5-Leucine] Enkephalin [free leu-enkephalin]”, the response time with mice (10 minutes after i.v. injection) is 3 s; with mice (30 minutes after i.v. injection) it was 2 s; in the series on mice (60 minutes after i.v. injection), 2 s. Further, the analgesic effect result is on record as “no significant analgesic effect” with mice (mice pretreated with pyridostigmine, Example 27) and “no significant analgesic effect” in the series with mice (Example 28). The “percentage of encapsulation at pH above pI relative to pH below pI” value in series [1] (Derivative 4/cholesterol/cholesteryl hemisuccinate nanoparticles, TBS pH 8.5) fell in the range of 2 to 4 times.
